From ChEMBL document CHEMBL5375942, “Discovery of a Potent Chloroacetamide GPX4 Inhibitor with Bioavailability to Enable Target Engagement in Mice, a Potential Tool Compound for Inducing Ferroptosis In Vivo” (J Med Chem, 2023)
One block for each compound: values may come before it. Active and inactive are the calls of the source. The calls are words filed in the database; no cut-off is given here.

How the values were obtained:
[1] = test system: NCI-H1703; assay: Induction of ferroptosis in human NCI-H1703 cells assessed as cell viability incubated for 72 hrs by CellTiter-Glo luminescent cell viability assay; type: functional, cell-based; settings: NCI-H1703, 72 h
[2] = Stability in mouse plasma assessed as half life; type: ADME, cell-free
[3] = Stability in human plasma assessed as half life; type: ADME, cell-free
[4] = test system: NCI-H1703; assay: Induction of ferroptosis in human NCI-H1703 cells assessed as cell viability incubated for 72 hrs in presence of ferrostatin-1 by CellTiter-Glo luminescent cell viability assay; type: functional, cell-based; settings: NCI-H1703, 72 h
[5] = Metabolic stability in mouse liver microsomes assessed as unbound intrinsic clearance; type: ADME, Microsome
[6] = Metabolic stability in human liver microsomes assessed as unbound intrinsic clearance; type: ADME, Microsome
[7] = test system: HT-1080; assay: Induction of ferroptosis in GPX4-dependent human HT-1080 cells assessed as cell viability incubated for 6 hrs in presence of 40% human plasma by time-course cell viability assay; type: functional, cell-based; settings: HT-1080, 6 h
[8] = AUC in CB17 SCID-Beige mouse subcutaneously inoculated with WSUDLCL2 cells at 100 mg/kg, ip; type: ADME, organism-based; parameters: dose 100 mg/kg, route ip; settings: in vivo
[9] = test system: HT-1080; assay: Induction of ferroptosis in GPX4-dependent human HT-1080 cells assessed as cell viability incubated for 3 hrs in presence of 40% human plasma by time-course cell viability assay; type: functional, cell-based; settings: HT-1080, 3 h
[10] = AUC in CB17 SCID-Beige mouse subcutaneously inoculated with WSUDLCL2 cells at 100 mg/kg, sc; type: ADME, organism-based; parameters: dose 100 mg/kg, route sc; settings: in vivo
[11] = target: Phospholipid hydroperoxide glutathione peroxidase GPX4 (Mus musculus) (UniProt O70325); assay: Target engagement at GPX4 in mouse 4T1 cells assessed as mass change between covalently bound protein and unbound protein at 0.01 to 1 ug/ml measured after 2 hrs by Western blot analysis; type: cell-based; settings: dose 0.01-1 µg/ml
Chain of Phospholipid hydroperoxide glutathione peroxidase GPX4 (Mus musculus) (O70325 whole entry): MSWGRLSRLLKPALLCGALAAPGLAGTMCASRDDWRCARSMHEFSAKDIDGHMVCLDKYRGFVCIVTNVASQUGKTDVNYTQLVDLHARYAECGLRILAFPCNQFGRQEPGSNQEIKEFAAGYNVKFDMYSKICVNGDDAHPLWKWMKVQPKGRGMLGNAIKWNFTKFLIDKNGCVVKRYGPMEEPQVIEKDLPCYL

[12] = test system: HT-1080; assay: Induction of ferroptosis in GPX4-dependent human HT-1080 cells assessed as cell viability incubated for […] in presence of 40% human plasma by time-course cell viability assay; type: functional, cell-based
[13] = Half life in CB17 SCID-Beige mouse subcutaneously inoculated with WSUDLCL2 cells at 100 mg/kg, ip; type: ADME, organism-based; settings: in vivo
[14] = test system: HT-1080; assay: Induction of ferroptosis in GPX4-dependent human HT-1080 cells assessed as cell viability incubated for 3 hrs by time-course cell viability assay; type: functional, cell-based; settings: HT-1080, 3 h
[15] = test system: WSUDLCL2; assay: Induction of ferroptosis in human WSUDLCL2 cells assessed as cell viability incubated for 72 hrs in presence of liproxstatin-1 by CellTiter-Glo luminescent cell viability assay; type: functional, cell-based
[16] = test system: HT-1080; assay: Induction of ferroptosis in GPX4-dependent human HT-1080 cells assessed as cell viability incubated for 6 hrs by time-course cell viability assay; type: functional, cell-based; settings: HT-1080, 6 h
[17] = test system: HT-1080; assay: Induction of ferroptosis in GPX4-dependent human HT-1080 cells assessed as cell viability incubated for 24 hrs in presence of 40% human plasma by time-course cell viability assay; type: functional, cell-based; settings: HT-1080, 24 h
[18] = Cmax in CB17 SCID-Beige mouse subcutaneously inoculated with WSUDLCL2 cells at 100 mg/kg, sc; type: ADME, organism-based; parameters: dose 100 mg/kg, route sc; settings: in vivo
[19] = test system: HT-1080; assay: Induction of ferroptosis in GPX4-dependent human HT-1080 cells assessed as cell viability measured immediately after addition of compound by time-course cell viability assay; type: functional, cell-based
[20] = Aqueous solubility of the compound at pH 7; type: physicochemical
[21] = test system: WSUDLCL2; assay: Induction of ferroptosis in human WSUDLCL2 cells assessed as cell viability incubated for 72 hrs by CellTiter-Glo luminescent cell viability assay; type: functional, cell-based
[22] = Plasma clearance in iv dosed mouse; type: ADME, organism-based
[23] = Half life in CB17 SCID-Beige mouse subcutaneously inoculated with WSUDLCL2 cells at 100 mg/kg, sc; type: ADME, organism-based; settings: in vivo
[24] = Aqueous solubility of the compound at pH 1; type: physicochemical
[25] = Cmax in CB17 SCID-Beige mouse subcutaneously inoculated with WSUDLCL2 cells at 100 mg/kg, ip; type: ADME, organism-based; parameters: dose 100 mg/kg, route ip; settings: in vivo
[26] = test system: WSUDLCL2; assay: Induction of ferroptosis in human WSUDLCL2 cells assessed as cell viability incubated for 72 hrs in presence of ferrostatin-1 by CellTiter-Glo luminescent cell viability assay; type: functional, cell-based
[27] = test system: HT-1080; assay: Induction of ferroptosis in GPX4-dependent human HT-1080 cells assessed as cell viability incubated for […] by time-course cell viability assay; type: functional, cell-based
[28] = Unbound fraction in human plasma; type: ADME, cell-free
[29] = target: Phospholipid hydroperoxide glutathione peroxidase GPX4 (Mus musculus) (UniProt O70325); assay: In vivo inhibition of GPX4 in SCID/Beige mouse assessed as increase in malondialdehyde level in kidney homogenate at 100 to 200 mg/kg, ip by TBAR assay; type: functional, organism-based; settings: dose 100-200 mg/kg
[30] = target: Phospholipid hydroperoxide glutathione peroxidase GPX4 (Mus musculus) (UniProt O70325); assay: In vivo inhibition of GPX4 in SCID/Beige mouse assessed as fold increase in PTGS2 transcription in kidney homogenate at 100 to 200 mg/kg, ip by qPCR analysis relative to vehicle treated control; type: functional, organism-based; settings: dose 100-200 mg/kg
[31] = test system: WSUDLCL2; assay: In vivo target engagement at GPX4 in human WSUDLCL2 cells subcutaneously inoculated in CB17 SCID-Beige mouse assessed as target engagement in tumor at 50 to 100 mg/kg, ip measured upto day 20 by Western blot analysis; type: functional, organism-based; settings: dose 50-100 mg/kg
[32] = target: Phospholipid hydroperoxide glutathione peroxidase GPX4 (Mus musculus) (UniProt O70325); assay: In vivo inhibition of GPX4 in SCID/Beige mouse assessed as increase in malondialdehyde level in plasma at 100 to 200 mg/kg, ip by TBAR assay; type: functional, organism-based; settings: dose 100-200 mg/kg
[33] = test system: HT-1080; assay: Induction of ferroptosis in GPX4-dependent human HT-1080 cells assessed as cell viability incubated for 24 hrs by time-course cell viability assay; type: functional, cell-based; settings: HT-1080, 24 h
[34] = test system: WSUDLCL2; assay: Effect on tumor volume in human WSUDLCL2 cells subcutaneously inoculated in CB17 SCID-Beige mouse tumor model at 50 to 100 mg/kg, ip measured upto day 20; type: functional, organism-based; settings: dose 50-100 mg/kg

Structure (SMILES): COC(=O)c1ccc([C@H]2c3[nH]c4ccccc4c3CCN2C(=O)CCl)cc1
EC50 [1]: 1390 nM | half-life [2]: 12 min | half-life [3]: 60 min

Structure (SMILES): COC(=O)c1ccc([C@H]2c3[nH]c4ccccc4c3C[C@H](C(=O)OC)N2C(=O)CCl)cc1
EC50 [7]: 750 nM | CL free [5]: 523.2 L/h/kg | AUC [8]: 2.79 µg/h/mL | EC50 [9]: 1010 nM | EC50 [1]: 80 nM | AUC [10]: 2.67 µg/h/mL | half-life [2]: 10 min | Activity [11]: Active | EC50 [12]: 1420 nM | half-life [13]: 108 min | EC50 [14]: 80 nM | Activity [15]: inactive | EC50 [16]: 60 nM | EC50 [17]: 880 nM | CL free [6]: 11.7 L/h/kg | Cmax [18]: 480 ng/mL | half-life [3]: 874 min | EC50 [19]: 590 nM | solubility [20]: < 0.8 µM | Activity [21]: Active | clearance [22]: 478 mL/min/kg | half-life [23]: 246 min | solubility [24]: < 0.8 µM | Cmax [25]: 650 ng/mL | Activity [26]: inactive | EC50 [27]: 160 nM

Structure (SMILES): COC(=O)[C@H]1Cc2c([nH]c3ccccc23)[C@H](c2ccc(F)cc2F)N1C(=O)CCl
EC50 [4]: 3.95 µM | EC50 [1]: 107 nM

Structure (SMILES): COC(=O)[C@H]1Cc2c([nH]c3ccccc23)C(c2ccc(F)cc2C(F)(F)F)N1C(=O)CCl (single isomer, unassigned)
EC50 [4]: > 10 µM | EC50 [1]: 64 nM

Structure (SMILES): COC(=O)[C@H]1Cc2c([nH]c3ccccc23)[C@H](c2ccc(S(C)(=O)=O)cn2)N1C(=O)CCl
CL free [5]: 20.9 L/h/kg | EC50 [4]: > 10 µM | EC50 [1]: 973 nM | half-life [2]: 80 min | CL free [6]: 2.1 L/h/kg | half-life [3]: 242 min

Structure (SMILES): COC(=O)c1ccc([C@@H]2c3[nH]c4ccccc4c3C[C@H](C(=O)OC)N2C(=O)CCl)cc1
Activity [11]: Active

Further lines, with some results ahead:

EC50 [4]: > 10 µM | EC50 [1]: 116 nM
Structure (SMILES): COC(=O)[C@H]1Cc2c([nH]c3ccccc23)[C@H](c2ccccc2)N1C(=O)CCl

CL free [5]: 33.8 L/h/kg | EC50 [4]: 5.66 µM | EC50 [1]: 570 nM | half-life [2]: 10 min | CL free [6]: 2.7 L/h/kg | half-life [3]: 254 min
Structure (SMILES): COC(=O)[C@H]1Cc2c([nH]c3ccccc23)[C@H](c2cccc(S(C)(=O)=O)c2)N1C(=O)CCl

EC50 [1]: 157 nM | half-life [2]: 19 min | half-life [3]: 24 min
Structure (SMILES): C#CC(=O)N1[C@@H](c2ccccc2)c2[nH]c3ccccc3c2C[C@@H]1C(=O)OC

CL free [5]: 283.5 L/h/kg | EC50 [4]: > 10 µM | EC50 [1]: 984 nM | half-life [2]: 162 min | CL free [6]: 28.6 L/h/kg | fraction unbound [28]: 0.026 | half-life [3]: 366 min
Structure (SMILES): COC(=O)[C@H]1Cc2c([nH]c3ccccc23)[C@H](Cc2ccccc2)N1C(=O)CCl

EC50 [7]: 490 nM | Activity [29]: Active | EC50 [4]: 4.74 µM | Activity [30]: Active | fold change (FC) [30]: 8 | EC50 [9]: 770 nM | EC50 [1]: 117 nM | EC50 [12]: 1260 nM | EC50 [14]: 270 nM | EC50 [16]: 170 nM | EC50 [17]: 520 nM | Activity [32]: Active | EC50 [33]: 90 nM | EC50 [27]: 850 nM
Structure (SMILES): COC(=O)[C@H]1Cc2c([nH]c3ccccc23)[C@H](c2ccc(S(C)(=O)=O)cc2)N1C(=O)CCl
Activity [31]: Active | Activity [15]: inactive | Activity [21]: Active | Activity [34]: inactive | Activity [26]: inactive

CL free [5]: 160.9 L/h/kg | half-life [2]: 821 min | CL free [6]: 11 L/h/kg | half-life [3]: > 960 min | clearance [22]: 50 mL/min/kg
Structure (SMILES): COC(=O)[C@H]1Cc2c([nH]c3ccccc23)[C@H](c2ccccc2)N1C(C)=O
